How the values were obtained:
[1] = molecular target: T1, I338G v-Src (Rous sarcoma virus subgroup A, UniProt P00524, DEL77-225/I338G); assay: biochemical; type: biochemical
T1 construct: screened against the catalytic domain of the target kinase, I338G v-Src; made in house; host or cells: E. coli DH5a, pGEX-KT

[2] = molecular target: T2, WT Fyn (Homo sapiens, UniProt P06241); assay: In Vitro Kinase Inhibition Assay; type: biochemical; set-up: in vitro inhibition of Fyn: dose or concentration left out as unconfirmed; details: for IC50: Table 3, wild type
T2 construct: GST (N); made in house; host or cells: E. coli DH5a, pGEX-KT

[3] = molecular target: T3, WT v-Src (Rous sarcoma virus subgroup A, UniProt P00524, DEL77-225); assay: biochemical; type: biochemical; set-up: in vitro inhibition of WT v-Src: dose or concentration left out as unconfirmed
T3 construct: mutant of the v-Src catalytic domain, (the XD4 fragment) were made as glutathione S-transferase (GST) fusion proteins; made in house; host or cells: E. coli (DH5a), pGEX-KT

[4] = test system: GST-XD4(V323A, I338A); details: 100 μM analog, 10 μM [γ-32P] ATP
[5] = test system: protein tyrosine kinase in murine lymphocyte cell lysate (CF); assay: Screening of ATP analogs as kinase substrates in murine lymphocyte lysate (anti-phosphotyrosine immunoblot); type: biochemical; details: 100 uM nucleotide triphosphate, 37° C., 5 min
Method: Screening of Nucleotide Analogs: To identify compounds that would not be accepted as substrates by any existing cellular kinase (53), a panel of synthetic A*TP analogs were screened in a murine lymphocyte lysate (CF) rich in protein tyrosine kinase (13). The assays were performed using spleenocytes (8-30 week old male and female C57/B6 mice from the Princeton University Animal Facility) which were isolated and washed in RPMI-1640 medium containing 5% Bovine Calf Serum (BCS), 1% Hepes and DNAseI (1 μg/ml). Red cells were lysed at 4° C. by treatment with 17 mM tris ammonium chloride pH 7.2. The cells were hypotonically lysed on ice for 10 min. In 1 mM Hepes pH 7.4, 5 mM MgCl2, leupeptin (10 μg/ml), aprotinin (10 μg/ml) and 100 uM PMSF according to the method of Fukazawa et. al. (51). After vortexing and centrifuigation at 500 xg, the supernatant was collected. Cells were stored at 4° C. for 20 min. To attenuate the basal protein phosphorylation level, after which the buffer was adjusted to 20 mM Hepes pH 7.4, 10 mM MgCl2 and 1 mM NaF. Sodium vanadate (100 uM) was then added to inhibit the activity of phosphotyrosine phosphatases.
Each nucleotide triphosphate was added to a final concentration of 100 uM to 5×10^6 cell equivalents and incubated at 37° C. for 5 min. after which 4X Laemmli gel loading buffer was added to the cell lysate to quench the reaction. Proteins were separated by 12.5% SDS-PAGE and transferred to Protran BA85 (Schleicher-Schuell). The blot was probed with the anti-phosphotyrosine monoclonal antibody 4G10 (Upstate Biotechnology) and the bound antibody was detected via enhanced chemiluminescence (cat. 34080, Pierce) following treatment with HRP- coupled goat-anti-mouse antibody (VWR cat. 7101332) according to the manufacturer's instructions.
The cell lysate used includes the protein tyrosine kinase Src, Fyn, Lck, Lyn, Yes, Fgr, Hck, Zap, Syk, Btk, Blk, and other protein tyrosine kinase present in B and T lymphocytes, macrophages, and follicular dendritic cells (13). Molecular size standards (in kilodaltons) are indicated.

[6] = test system: B cell receptor (BCR) mediated phosphorylation cascade in murine B cells; assay: Murine B Cell Assay (phosphotyrosine blot after anti-IgM stimulation); type: cell-based; set-up: dose or concentration left out as unconfirmed; details: 30 minutes, anti-IgM cross linked murine B cells
Method: Murine B Cell Assay: Splenic lymphocytes were isolated from 6-20 week old Balb/c or C57/B6 mice. The cells were washed out of the spleen into RPMI media containing 1 mg/mL DNase in and the red blood cells were lysed in 17 mM tris-ammonium chloride, pH 7.2, Approximately 4×10^6 cells were incubated at 37° C. for 30 minutes with […] of 3 g or 2 in 1.1% DMSO. B cell stimulation was initiated by the addition of 2 mg of goat anti-mouse IgM (Jackson Immuno Research, cat# 115-005-075) and subsequent incubation for 5 minutes at 37(C. The cells were isolated by centrifugation (13,000 rpm, 2 min) and lysed (lysis buffer: 1% Triton X-100, 50 mM tris pH 7.4, 2 mM EDTA, 150 mM NaCl, […] PMSF, 2 mM sodium orthovanadate, 10 mg/mL leupeptin, 10 mg/mL apoprotin). The cellular debris was then pelleted at 13,000 rpm for 15 min. Cellular proteins were separated by 10% polyacrylamide gel electrophoresis and transferred to a nitrocellulose membrane by Western blotting. Phosphotyrosine containing proteins were visualized by immunoblotting with anti-phosphotyrosine antibody (Upstate Biotechnology, Inc.).

T2 sequence (P06241 1-534 isoform P06241-2): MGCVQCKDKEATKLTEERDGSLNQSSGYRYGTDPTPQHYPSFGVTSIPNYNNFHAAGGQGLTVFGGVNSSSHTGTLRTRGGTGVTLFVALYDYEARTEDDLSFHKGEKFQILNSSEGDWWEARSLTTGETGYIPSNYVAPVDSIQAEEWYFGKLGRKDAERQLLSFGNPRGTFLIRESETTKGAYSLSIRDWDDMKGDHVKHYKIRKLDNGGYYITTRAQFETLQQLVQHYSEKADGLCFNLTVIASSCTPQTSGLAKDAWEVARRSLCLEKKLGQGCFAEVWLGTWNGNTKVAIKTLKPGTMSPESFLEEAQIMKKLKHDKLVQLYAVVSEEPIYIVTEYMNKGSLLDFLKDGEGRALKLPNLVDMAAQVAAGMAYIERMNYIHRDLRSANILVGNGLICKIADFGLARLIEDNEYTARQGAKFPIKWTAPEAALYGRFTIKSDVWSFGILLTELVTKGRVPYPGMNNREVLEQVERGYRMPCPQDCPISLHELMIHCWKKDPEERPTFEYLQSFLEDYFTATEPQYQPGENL

## CC(C)(C)n1nc(-c2cccc(OCc3c(Cl)cccc3Cl)c2)c2c(N)ncnc21 [Compound 6e, 4-amino-1-(tert-butyl)-3-(m-(2′,6′-dichloro)benzyloxyphenyl) pyrazolo[3,4-d]pyrimidine]
[1]
  IC50: 130 nM
[2]
  IC50: 84000 nM

## CC(C)(C)n1nc(Cc2ccc3ccccc3c2)c2c(N)ncnc21 [Compound 6j, 4-amino-1-(tert-butyl)-3-(2′-naphthylmethyl)pyrazolo[3,4-d]pyrimidine]
[3]
  IC50: > 300000 nM
[1]
  IC50: 20 nM
  inhibition of I338G v-Src (in words): medium potency

## O=P(O)(O)OP(=O)(O)OP(=O)(O)OC[C@H]1O[C@@H](n2cnc3c(NC4CCCCC4)ncnc32)[C@H](O)[C@@H]1O [ATP analog 11, N^6-(cyclohexyl)ATP]
[4]
  inhibition of GST-XD4(V323A, I338A) catalyzed RR-Src phosphorylation: almost as well as the wild-type kinase, GST-XD4, is inhibited by its natural substrate ATP

## Cc1ccc(-c2nn(C(C)(C)C)c3ncnc(N)c23)cc1 [PP1, 4-amino-1-tert-butyl-3-(p-methylphenyl)pyrazolo[3,4-d]pyrimidine, reference compound]
[2]
  inhibition of WT Fyn (in words): highly potent (low nM)

## CC(C)ONc1ncnc2c1ncn2[C@@H]1O[C@H](COP(=O)(O)OP(=O)(O)OP(=O)(O)O)[C@@H](O)[C@H]1O [ATP analog 4, N^6(i-propoxy)ATP]
[5]
  ability to serve as cellular protein tyrosine kinase substrate (level of protein tyrosine phosphorylation): little or no protein phosphorylation

## CC(C)(C)n1nc(-c2ccccc2)c2c(NCc3ccco3)ncnc21 [Compound 4d, 4-2′-furylmethylamino-1-tert-butyl-3-phenylpyrazolo[3,4-d]pyrimidine]
[1]
  inhibition of I338G v-Src (in words): only poor to moderate inhibition
[2]
  inhibition of WT Fyn (in words): sufficiently orthogonal to WT Fyn

## CC(C)(C)c1ccc(-c2nn(C(C)(C)C)c3ncnc(N)c23)cc1 [Compound 6g, 4-amino-1-(tert-butyl)-3-(p-tert-butylphenyl)pyrazolo[3,4 d]pyrimidine]
[3]
  IC50: 65000 nM
[1]
  IC50: 99 nM
[2]
  IC50: 9200 nM

## OCC1OC(n2cnc3c(NOC4CCCC4)ncnc32)C(O)C1O (stereo not drawn) [1 (FIG. 14A), N-6 cyclopentyloxyadenosine]
[3]
  in vitro inhibition of WT v-Src: no detectable in vitro inhibition
[2]
  in vitro inhibition of Fyn: no detectable in vitro inhibition

## CCONc1ncnc2c1ncn2[C@@H]1O[C@H](COP(=O)(O)OP(=O)(O)OP(=O)(O)O)[C@@H](O)[C@H]1O [ATP analog 2, N^6(ethoxy)ATP]
[5]
  ability to serve as cellular protein tyrosine kinase substrate (level of protein tyrosine phosphorylation): some ability to serve as cellular protein tyrosine kinase substrates

## CC(C)(C)n1nc(-c2cccc(OCc3ccccc3)c2)c2c(N)ncnc21 [Compound 6d, 4-amino-1-(tert-butyl)-3-(m-benzyloxyphenyl)pyrazolo[3,4-d]pyrimidine]
[3]
  IC50: 26000 nM
[1]
  IC50: 7 nM
  inhibition of I338G v-Src (in words): low nM concentrations
[2]
  IC50: 6000 nM

## O=P(O)(O)OP(=O)(O)OP(=O)(O)OC[C@H]1O[C@@H](n2cnc3c(NOCc4ccccc4)ncnc32)[C@H](O)[C@@H]1O [ATP analog 6, N^6-(benxyloxy)ATP]
[5]
  ability to serve as cellular protein tyrosine kinase substrate (level of protein tyrosine phosphorylation): little or no protein phosphorylation

## CC(C)(C)n1nc(-c2ccccc2)c2c(N)ncnc21 [2 (FIG. 14), 4-Amino-1-tert-butyl-3-phenylpyrazolo[3,4-d] pyrimidine, reference compound]
[6]
  phosphotyrosine pattern of B cell stimulation: significant reduction in tyrosine phosphorylation
[2]
  inhibition of WT Fyn (in words): highly potent (low nM)

## CONc1ncnc2c1ncn2[C@@H]1O[C@H](COP(=O)(O)OP(=O)(O)OP(=O)(O)O)[C@@H](O)[C@H]1O [ATP analog 1, N^6(methoxy)ATP]
[5]
  ability to serve as cellular protein tyrosine kinase substrate (level of protein tyrosine phosphorylation): some ability to serve as cellular protein tyrosine kinase substrates

## CC(C)(C)n1nc(-c2ccc3ccccc3c2)c2c(N)ncnc21 [Compound 6b, 4-amino-1-(tert-butyl)-3-(2′-naphthyl)pyrazolo[3,4-d]pyrimidine]
[2]
  IC50: 130 nM

## CC(=O)Nc1ncnc2c1ncn2[C@@H]1O[C@H](COP(=O)(O)OP(=O)(O)OP(=O)(O)O)[C@@H](O)[C@H]1O [ATP analog 3, N^6(acetyl)ATP]
[5]
  ability to serve as cellular protein tyrosine kinase substrate (level of protein tyrosine phosphorylation): some ability to serve as cellular protein tyrosine kinase substrates

## CC(C)(C)n1nc(-c2ccccc2)c2c(NCc3ccccc3)ncnc21 [Compound 4e, 4-benzylamino-1-tert-butyl-3-phenylpyrazolo[3,4-d]pyrimidine]
[1]
  inhibition of I338G v-Src (in words): only poor to moderate inhibition
[2]
  inhibition of WT Fyn (in words): sufficiently orthogonal to WT Fyn

## O=P(O)(O)OP(=O)(O)OP(=O)(O)OC[C@H]1O[C@@H](n2cnc3c(NCc4ccccc4)ncnc32)[C@H](O)[C@@H]1O [ATP analog 5, N^6-(benzyl)ATP]
[5]
  ability to serve as cellular protein tyrosine kinase substrate (level of protein tyrosine phosphorylation): little or no protein phosphorylation
[4]
  inhibition of GST-XD4(V323A, I338A) catalyzed RR-Src phosphorylation: almost as well as the wild-type kinase, GST-XD4, is inhibited by its natural substrate ATP

## CC(C)(C)n1nc(-c2cccc(Oc3ccccc3)c2)c2c(N)ncnc21 [Compound 6c, 4-amino-1-(tert-butyl)-3-(m-phenoxyphenyl)pyrazolo[3,4-d]pyrimidine]
[3]
  IC50: 40000 nM
[1]
  IC50: 140 nM
[2]
  IC50: 800 nM

## CC(C)(C)n1nc(-c2ccccc2)c2c(NCC3CCCC3)ncnc21 [Compound 4b, 4-cyclopentylmethylamino-1-tert-butyl-3-phenylpyrazolo[3,4-d]pyrimidine]
[1]
  inhibition of I338G v-Src (in words): only poor to moderate inhibition
[2]
  inhibition of WT Fyn (in words): sufficiently orthogonal to WT Fyn

## O=P(O)(O)OP(=O)(O)OP(=O)(O)OC[C@H]1O[C@@H](n2cnc3c(NOC4CCCC4)ncnc32)[C@H](O)[C@@H]1O [ATP analog 9, N^6(cyclopentyloxy)ATP]
[4]
  inhibition of GST-XD4(V323A, I338A) catalyzed RR-Src phosphorylation: almost as well as the wild-type kinase, GST-XD4, is inhibited by its natural substrate ATP
